Results as given in patent US8084494B2, “Substituted aminophenylsulfonamide compounds as HIV protease inhibitor” (priority 2005, dated 2011).

What was measured:
Test in all cases: microbe, parasite or virus in culture
Format in all cases: cell-based
[1] = system: wild type laboratory HIV strain (WT IIIB-2-001); settings: Human immunodeficiency virus 1, IIIB, 72 h, read-out: EC50, Virus Strains WT IIIB-2-001
Experimental: (§1) The compounds were tested in a cellular assay using the MT4-LTR-EGFP cells for anti-viral activity. […] Because of the increasing emergence of drug resistant HIV strains, the present compounds were tested for their potency against clinically isolated HIV strains harboring several mutations. […] The viral strains A, B, C and D contain mutations as indicated below in Table 2.
(§2) The cellular assay was performed according to the following procedure. HIV- or mock-infected MT4-LTR-EGFP cells were incubated for three days in the presence of various concentrations of the compounds according to the invention. Upon infection, the viral tat protein activates the GFP reporter. At the end of the incubation period, the GFP signal was measured. […] The inhibitory activity of the compound was monitored on the virus-infected cells and was expressed as EC50. These values represent the amount of the compound required to protect 50% of the cells from virus infection.

[2] = system: clinically isolated HIV strain D-2-001; settings: Human immunodeficiency virus 1, 72 h, read-out: EC50, Virus Strains D-2-001
Experimental: as §1, §2

[3] = system: clinically isolated HIV strain A-2-001; settings: Human immunodeficiency virus 1, 72 h, read-out: EC50, Virus Strains A-2-001
Experimental: as §1, §2

[4] = system: clinically isolated HIV strain C-2-001; settings: Human immunodeficiency virus 1, 72 h, read-out: EC50, Virus Strains C-2-001
Experimental: as §1, §2

[5] = system: clinically isolated HIV strain B-2-001; settings: Human immunodeficiency virus 1, 72 h, read-out: EC50, Virus Strains B-2-001
Experimental: as §1, §2

SMILES	EC50 [1] [nM]	EC50 [2] [nM]	EC50 [3] [nM]	EC50 [4] [nM]	EC50 [5] [nM]
CC(C)CN(C[C@@H](O)[C@H](Cc1ccccc1)NC(=O)O[C@H]1CO[C@H]2OCC[C@H]21)S(=O)(=O)c1ccc(N)c(NCc2ccccn2)c1 [Compound 80, [3-({4-amino-3-[(pyridin-2-ylmethyl)-amino]-benzenesulfonyl}-isobutyl-amino)-1-benzyl-2-hydroxy-propyl]-carbamic acid hexahydro-furo[2,3-b]furan-3-yl ester]	8.91	38.9	1.48	14.5	93.3
CC(C)CN(CC(O)C(Cc1ccccc1)NC(=O)OC1COC2OCCC12)S(=O)(=O)c1ccc(N)c(NCc2ccc(F)cc2F)c1 (stereo not shown) [Compound 78, (3-{[4-amino-3-(2,4-difluoro-benzylamino)-benzenesulfonyl]-isobutyl-amino}-1-benzyl-2-hydroxy-propyl)-carbamic acid hexahydro-furo[2,3-b]furan-3-yl ester]	3.63	35.5	0.617	10	135
